{"source": "patent US20130289099A1", "about": "“ABCG1 GENE AS A MARKER AND A TARGET GENE FOR TREATING OBESITY” (UNIVERSITE PIERRE ET MARIE CURIE (PARIS 6), priority 2010, published 2013)", "key": {"ABCG1": {"test_system": "ABCG1", "test": "ABCG1 knockdown efficiency (mRNA) in 3T3-L1 adipocytes", "assay_type": "cell-based, mouse", "conditions": "mature 3T3-L1 adipocytes, p<0.0005", "experimental": "3T3-L1 adipocytes. The 3T3-L1 preadipocytes (ATCC) were maintained in Dulbecco's modified Eagle medium (DMEM) supplemented with 10% calf serum and 2 mM glutamine. Differentiation of confluent preadipocytes was initiated with 250 nM insulin, 1250 nM dexamethasone and 250 μM 3-isobutyl-methyl-1-xanthine) in DMEM (4.5 g/L glucose) supplemented with 10% FBS. After 3 days, the culture medium was switched to DMEM (4.5 g/L glucose) supplemented with 10% FBS and 100 nM Insulin for 2 days. Then, 3T3-adipocytes were allowed to mature in DMEM (4.5 g/L glucose) containing 10% FBS, which was replaced every other day for 15 days. […]\n(§1) Twenty-four hours following transfection with siRNA, Control and ABCG1 KD cells were washed twice with cold PBS and total RNA was extracted using a NucleoSpin RNA II kit (Macherey-Nagel) according to the manufacturer's instructions. Reverse transcription of RNA and real time quantitative PCR using a LightCycler LC480 (Roche) were performed as previously described (Larrede et al., 2009). Expression data were based on the crossing points calculated with the software for LightCycler data analysis and corrected for PCR efficiencies of the target and the reference gene. When indicated, data were expressed as a fold change in mRNA expression relative to control values."}, "LPL [1]": {"test_system": "LPL", "test": "Secreted LPL activity in culture media of 3T3-L1 adipocytes", "assay_type": "cell-based, mouse", "conditions": "ABCG1 KD 3T3-L1 adipocytes, p<0.05", "experimental": "(§2) 3T3-L1 adipocytes. The 3T3-L1 preadipocytes (ATCC) were maintained in Dulbecco's modified Eagle medium (DMEM) supplemented with 10% calf serum and 2 mM glutamine. Differentiation of confluent preadipocytes was initiated with 250 nM insulin, 1250 nM dexamethasone and 250 μM 3-isobutyl-methyl-1-xanthine) in DMEM (4.5 g/L glucose) supplemented with 10% FBS. After 3 days, the culture medium was switched to DMEM (4.5 g/L glucose) supplemented with 10% FBS and 100 nM Insulin for 2 days. Then, 3T3-adipocytes were allowed to mature in DMEM (4.5 g/L glucose) containing 10% FBS, which was replaced every other day for 15 days.\n(§3) Cell culture medium from either macrophage or adipocyte cultures was replaced by a serum-free medium containing 10 U/mL heparin (Choay) and the cells were subsequently incubated for 24 h at 37° C. Culture medium was then collected and stored at −80° C. until determination of LPL activity and cells were lysed overnight in 0.2 N NaOH. Cell protein was quantified using the BCA assay (Pierce). LPL activity was determined using a 50-μl aliquot of culture medium ( 1/10 of total volume), or plasma when indicated, according to the procedure previously described (Stengel et al., 1998). Results are expressed as units of LPL activity (1 U of LPL activity correspond to 1 nmol free fatty acid liberated/min/mg cell protein). […]"}, "3T3-L1 preadipocytes": {"test_system": "3T3-L1 preadipocytes", "test": "Cellular triglyceride content during maturation of 3T3-L1 preadipocytes into adipocytes", "assay_type": "cell-based, mouse", "conditions": "silencing in preadipocytes at D0; after 4 days of differentiation, p<0.05", "experimental": "as §2\n(§4) Quantification of total cellular triglyceride and cholesterol mass was performed as previously described (Milosavljevic et al., 2003).\n(§5) Ten-day differentiated HMDM were grown in 24-well plates and transfected with 50 nM control siRNA (Dharmacon) or siRNA targeting human ABCG1 using lipofectamine RNAiMax (Invitrogen) according to the manufacturer's instructions. Transfection of 3T3-L1 preadipocytes and mature adipocytes with siRNA was achieved using the Nucleofector® technology (Lonza) according to the manufacturer's protocol. For each experiment, 2×10^6 cells and 100 pmol siRNA were diluted in 100 μl of V solution and processed with A-033 program."}, "[2]": {"test_system": "human monocyte-derived macrophages (HMDM)", "test": "VLDL-induced cellular triglyceride and cholesterol accumulation in HMDM", "assay_type": "cell-based", "conditions": "50 μg/mL VLDL, 24 h", "experimental": "as §4, §5"}, "human ABCG1": {"test_system": "human ABCG1", "test": "siRNA silencing of ABCG1 in HMDM, Western blot of total ABCG1 protein", "assay_type": "cell-based", "conditions": "HMDM transfected with 50 nM siRNA vs control siRNA", "experimental": "(§6) Human Macrophages. Human THP-1 monocytic cells (ATCC) and a THP-1 clone stably transfected with an shRNA targeting human ABCG1, in which ABCG1 expression is stably knocked down (ABCG1 SKD), were cultured and differentiated into macrophage-like cells as previously described (Larrede et al., 2009). Circulating human monocytes were isolated from the blood of individual healthy normolipidemic donors (Etablissement Français du Sang, EFS) on Ficoll gradients (Ficoll-Paque PLUS, GE Healthcare) and subsequently differentiated into human macrophages (HMDM) following the procedure previously reported (Larrede et al., 2009).\nSilencing of ABCG1 expression was performed by application of siRNA oligonucleotides (Dharmacon) targeted to the cDNA sequence of either the human ABCG1 gene (Genebank #AY048757):\nTen-day differentiated HMDM were grown in 24-well plates and transfected with 50 nM control siRNA (Dharmacon) or siRNA targeting human ABCG1 using lipofectamine RNAiMax (Invitrogen) according to the manufacturer's instructions. […]\nCell proteins were extracted using 200 μL M-PER reagent (Pierce) containing protease inhibitors and were subsequently separated on a 4-12% Bis-Tris gel (Invitrogen). […] ABCG1 was detected using rabbit anti-hABCG1 (NB400-132; Novus) at 1:500 and goat anti-rabbit/HRP (Dako) at 1:15000."}, "LPL [3]": {"test_system": "LPL", "test": "Secreted LPL activity in culture media of HMDM after heparin", "assay_type": "cell-based, human", "conditions": "ABCG1 KD HMDM, after heparin treatment, p=0.02", "experimental": "as §6, §3"}, "LPL mRNA": {"test_system": "LPL mRNA", "test": "LPL mRNA levels by real-time quantitative PCR in HMDM", "assay_type": "cell-based, human", "conditions": "ABCG1 KD HMDM, p<0.05", "experimental": "as §5, §1"}, "LPL [4]": {"test_system": "LPL", "test": "Confocal microscopy of LPL at the cell surface of HMDM", "assay_type": "cell-based, human", "conditions": "ABCG1 KD HMDM vs control", "experimental": "Cells were blocked for 60 minutes with 3% BSA in PBS and then incubated with an anti-hLPL antibody (Abcam; 1:300) overnight at 4° C. After washing, a biotinylated goat anti-mouse IgG secondary antibody (1:1000; BD Pharmingen) was added, followed by the addition of streptavidin-horseradish peroxidase. The signal was enhanced using the tyramide signal amplification (TSA) kit (PerkinElmer) according to the manufacturer's protocol; cells were counterstained for nuclei with DAPI (Invitrogen). Confocal microscopy was performed using a Right confocal microscope Olympus FV-1000 with a 60× objective."}, "LPL [5]": {"test_system": "LPL", "test": "Flow cytometry of cell surface LPL in THP-1 macrophages", "assay_type": "cell-based, human", "conditions": "ABCG1 KD THP-1 macrophages, p<0.05", "experimental": "as §6\nHuman THP-1 macrophages were cultured in 12-well plates (2.106 cells/well) and incubated in serum-free media in the presence or in the absence of 10 U/mL heparin (Choay) for 24 h at 37° C. following siRNA transfection. Cells were then washed and harvested in cold PBS. After brief centrifugation (2000 rpm, […]) at 4° C., cells were pre-incubated with 100 μl of human Fc Blocker (BD Pharmingen; 1:400 in PBS/BSA 1%) for 10 min at 4° C., and incubated with a monoclonal mouse antibody directed against human LPL (abcam; 1:100) for a further 15 min at 4° C. […] Cells were analyzed on an FC 500 flow cytometer (Beckman Coulter) using Epics XL32 software."}, "[6]": {"test_system": "SDC1, SDC2, VLDL-r, LRP, apoE, LDL-r", "test": "Relative mRNA levels of proteoglycan core proteins, lipoprotein receptors and apoE in HMDM", "assay_type": "cell-based, human", "experimental": "as §5, §1"}}, "note": "{P} = phosphate", "data": [{"compound": "5′-GCGAAGCUGUACCUGGAUU-UU / 5′-P-AAUCCAGGUACAGCUUCGC-UU-3′ (sense GCGAAGCUGUACCUGGAUUUU; antisense AAUCCAGGUACAGCUUCGCUU; siRNA; sense: RNA, backbone not given here; antisense: RNA, 5' {P}, backbone not given here) [siRNA targeting mouse Abcg1]", "values": [{"measurement": "inhibition of ABCG1 (mRNA), change vs control", "setting": "ABCG1", "value": "−77", "unit": "%"}, {"measurement": "LPL activity in media, change vs control cells", "setting": "LPL [1]", "value": "−81", "unit": "%"}, {"measurement": "intracellular TG accumulation during adipocyte maturation, change vs control cells", "setting": "3T3-L1 preadipocytes", "value": "−22", "unit": "%"}]}, {"compound": "CCCCCCCCCCC[C@@H](C[C@@H]1OC(=O)[C@H]1CCCCCC)OC(=O)[C@H](CC(C)C)NC=O", "note": "[THL, Tetrahydrolipstatin, reference compound]", "values": [{"measurement": "TC accumulation induced by VLDL, change", "setting": "[2]; control HMDM, 10 μM THL", "value": "−75", "unit": "%"}, {"measurement": "TG accumulation induced by VLDL, change", "setting": "[2]; control HMDM, 10 μM THL", "value": "−43", "unit": "%"}]}, {"compound": "5′-UCAUUGGCCUGCUGUACUU-UU-3 / 5′-P-AAGUACAGCAGGCCAAUGA-UU-3′ (sense UCAUUGGCCUGCUGUACUUUU; antisense AAGUACAGCAGGCCAAUGAUU; siRNA; sense: RNA, backbone not given here; antisense: RNA, 5' {P}, backbone not given here) [siRNA specific for the human ABCG1 gene]", "values": [{"measurement": "ABCG1 expression (total ABCG1 protein, Western blot)", "setting": "human ABCG1", "value": "almost complete abolition"}, {"measurement": "secreted LPL activity, change vs control HMDM", "setting": "LPL [3]", "value": "−52", "unit": "%"}, {"measurement": "LPL expression (mRNA), change vs control HMDM", "setting": "LPL mRNA", "value": "+28%"}, {"measurement": "abundance of LPL detected at the cell surface after heparin treatment", "setting": "LPL [4]; 10 U/mL heparin", "value": "still remained higher than that in control HMDM"}, {"measurement": "LPL expression at the cell surface (confocal microscopy)", "setting": "LPL [4]; without heparin", "value": "much more pronounced than in control cells"}, {"measurement": "expression of LPL at the cell surface (flow cytometry), change vs control cells", "setting": "LPL [5]", "value": "+48%"}, {"measurement": "VLDL-induced accumulation of cholesterol", "setting": "[2]; ABCG1 KD HMDM", "value": "completely abolished"}, {"measurement": "VLDL-induced accumulation of TG, change vs control cells", "setting": "[2]; ABCG1 KD HMDM, p<0.01", "value": "−38", "unit": "%"}, {"measurement": "relative mRNA levels of SDC1, SDC2, VLDL-r, LRP and apoE", "setting": "[6]; ABCG1 KD human macrophages vs control", "value": "not altered"}, {"measurement": "LDL-receptor (LDL-r) expression, induction vs control cells", "setting": "[6]; ABCG1 KD macrophages, p<0.01", "value": 2, "unit": "fold"}]}]}
